Measured values reported in patent publication US20240270762A1, “PENICILLIN-BINDING PROTEIN INHIBITORS” (priority 2021, published 2024).
pIC50: −log10 of the molar value. Values after ≈ are worked out from the molar mass of the structure shown. Like-named read-outs stand apart in the source and are kept apart here.

Tests used:
[1] = target: T1, PBP3 from Pseudomonas aeruginosa (PAO1) (Pseudomonas aeruginosa, UniProt G3XD46); assay: Bocillin-FL fluorescence polarization competition binding, P. aeruginosa PBP3; settings: Binding affinity to P. aeruginosa PBP3; fluorescence polarization competition binding assay using Bocillin-FL; read-out: P. aeruginosa PBP3 Potency
T1 construct: made in house
T1 sequence (G3XD46 whole entry): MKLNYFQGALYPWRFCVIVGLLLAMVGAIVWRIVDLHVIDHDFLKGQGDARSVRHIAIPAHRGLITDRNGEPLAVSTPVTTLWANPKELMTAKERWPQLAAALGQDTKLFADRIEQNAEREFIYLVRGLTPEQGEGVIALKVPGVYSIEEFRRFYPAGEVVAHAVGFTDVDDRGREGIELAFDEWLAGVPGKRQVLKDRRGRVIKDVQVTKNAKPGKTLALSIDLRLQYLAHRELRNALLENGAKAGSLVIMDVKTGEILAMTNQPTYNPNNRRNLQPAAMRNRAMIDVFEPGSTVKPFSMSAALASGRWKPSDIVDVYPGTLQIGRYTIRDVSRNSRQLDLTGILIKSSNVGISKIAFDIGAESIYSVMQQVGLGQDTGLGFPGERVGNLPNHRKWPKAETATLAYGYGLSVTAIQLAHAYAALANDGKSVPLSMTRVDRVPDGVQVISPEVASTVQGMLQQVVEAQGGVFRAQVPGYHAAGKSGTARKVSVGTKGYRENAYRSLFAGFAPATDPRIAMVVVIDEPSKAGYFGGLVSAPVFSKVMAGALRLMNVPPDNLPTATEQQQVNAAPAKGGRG
How it was run: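 Purified PBP was preincubated with inhibitor (E. coli PBP3 1.5 μM, 30 min; P. aeruginosa PBP3 0.75 μM, A. baumannii PBP3 0.2 μM and PBP1a 1 μM, 15 min), then Bocillin-FL (0.1 μM; 0.05 μM for PBP1a) added and FP read up to 60 min. EC50 = 50% loss of bound probe.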

P. aeruginosa CDC-0090 = assay: microbe, parasite or virus in culture; format: cell-based; settings: Pseudomonas aeruginosa, CDC0090, read-out: Minimum inhibitory concentration, P. aeruginosa CDC-0090
[2] = tested on: P. aeruginosa (ΔmexAB-oprM); assay: Broth microdilution MIC in iron-depleted CAMHB (IDM); format: cell-based; settings: Pseudomonas aeruginosa, read-out: Minimum inhibitory concentration, P. aeruginosa ΔmexAB-oprM
P. aeruginosa CDC-0054 = assay: microbe, parasite or virus in culture; format: cell-based; settings: Pseudomonas aeruginosa, CDC0054, read-out: Minimum inhibitory concentration, P. aeruginosa CDC-0054
[3] = tested on: B. thailandensis ATCC 700388; assay: microbe, parasite or virus in culture; format: cell-based; settings: Burkholderia thailandensis, ATCC700388, read-out: Minimum inhibitory concentration (MIC), B. thailandensis ATCC 700388
P. aeruginosa CDC-0095 = assay: microbe, parasite or virus in culture; format: cell-based; settings: Pseudomonas aeruginosa, CDC0095, read-out: Minimum inhibitory concentration, P. aeruginosa CDC-0095

SMILES	pIC50 [1]	MIC (P. aeruginosa CDC-0090) [µg/mL]	MIC ([2]; iron-depleted CAMHB (IDM), […]) [µg/mL]	MIC (P. aeruginosa CDC-0054) [µg/mL]	MIC [3] [µg/mL]	MIC (P. aeruginosa CDC-0095) [µg/mL]	MIC [2] [µg/mL]
O=C(O)c1c(F)ccc2c1OB(O)[C@@H](NC(=O)C(NC(=O)N1CCN(C3CCN(C(=O)Nc4cc(O)c(F)cc4Cl)CC3)C(=O)C1=O)c1cc(F)c(O)c(O)c1Cl)C2 (stereo partly drawn) [Example 490, (3R)-3-(2-(4-(1-((2-chloro-4-fluoro-5-hydroxyphenyl)carbamoyl)piperidin-4-yl)-2,3-dioxopiperazine-1-carboxamido)-2-(2-chloro-5-fluoro-3,4-dihydroxyphenyl)acetamido)-7-fluoro-2-hydroxy-3,4-dihydro-2H-benzo[e][1,2]oxaborinine-8-carboxylic acid]	> 5.00	2 to 4 (≈ 2.34 to 4.69 µM)	< 1	8 to 16 (≈ 9.37 to 18.7 µM)	32 to 64 (≈ 37.5 to 75 µM)	2 to 4 (≈ 2.34 to 4.69 µM)	–
O=C(O)c1c(F)ccc2c1OB(O)[C@@H](NC(=O)[C@H](NC(=O)N1CCN(C3CCN(C(=O)c4ccncc4)CC3)C1=O)c1cc(F)c(O)c(O)c1Cl)C2 [Example 461, (R)-3-((R)-2-(2-chloro-5-fluoro-3,4-dihydroxyphenyl)-2-(3-(1-isonicotinoylpiperidin-4-yl)-2-oxoimidazolidine-1-carboxamido)acetamido)-7-fluoro-2-hydroxy-3,4-dihydro-2H-benzo[e][1,2]oxaborinine-8-carboxylic acid]	> 5.00	< 1	< 1	< 1	< 1	< 1	–
O=C(O)c1c(F)ccc2c1OB(O)[C@@H](NC(=O)[C@H](NC(=O)N1CCN(C3CCN(C(=O)c4cc(O)c(O)c(Cl)c4)CC3)C1=O)c1ccc(P(=O)(O)O)cc1)C2 [Example 496, (R)-3-((R)-2-(3-(1-(3-chloro-4,5-dihydroxybenzoyl)piperidin-4-yl)-2-oxoimidazolidine-1-carboxamido)-2-(4-phosphonophenyl)acetamido)-7-fluoro-2-hydroxy-3,4-dihydro-2H-benzo[e][1,2]oxaborinine-8-carboxylic acid]	> 5.00	< 1	< 1	< 1	< 1	8 to 16 (≈ 9.95 to 19.9 µM)	–
O=C(O)c1c(F)ccc2c1OB(O)[C@@H](NC(=O)[C@H](NC(=O)N1CCN(C3CCN(C(=O)c4cccc(O)c4)CC3)C1=O)c1cc(F)c(O)c(O)c1Cl)C2 (single isomer, unassigned) [Example 430]	> 5.00	< 1	< 1	< 1	< 1	< 1	–
O=C(O)c1c(F)ccc2c1OB(O)[C@@H](NC(=O)[C@H](NC(=O)N1CCN(C3CCN(C(=O)c4c(F)ccc(O)c4F)CC3)C1=O)c1cc(F)c(O)c(O)c1Cl)C2 (single isomer, unassigned) [Example 439]	> 5.00	< 1	< 1	2 to 4 (≈ 2.52 to 5.04 µM)	< 1	2 to 4 (≈ 2.52 to 5.04 µM)	–
O=C(O)c1c(F)ccc2c1OB(O)[C@@H](NC(=O)[C@H](NC(=O)N1CCN(C3CCN(C(=O)c4cc(O)c(F)c(O)c4F)CC3)C1=O)c1cc(F)c(O)c(O)c1Cl)C2 (single isomer, unassigned) [Example 444]	> 5.00	< 1	< 1	< 1	< 1	< 1	–
O=C(O)c1c(F)ccc2c1OB(O)[C@@H](NC(=O)[C@H](NC(=O)N1CCN(C3CCN(C(=O)c4cc(O)c(F)c(O)c4)CC3)C1=O)c1cc(F)c(O)c(O)c1Cl)C2 (single isomer, unassigned) [Example 443]	> 5.00	< 1	< 1	< 1	< 1	< 1	–
O=C(O)c1c(F)ccc2c1OB(O)[C@@H](NC(=O)[C@H](NC(=O)N1CCN(C3CCN(C(=O)c4ccc(F)c(O)c4F)CC3)C1=O)c1cc(F)c(O)c(O)c1Cl)C2 (single isomer, unassigned) [Example 437]	> 5.00	< 1	< 1	< 1	< 1	< 1	–
O=C(O)c1c(F)ccc2c1OB(O)[C@@H](NC(=O)C(NC(=O)N1CCN(C3CCN(C(=O)Nc4cc(O)cc(F)c4)CC3)C(=O)C1=O)c1cc(F)c(O)c(O)c1Cl)C2 (stereo partly drawn) [Example 481, (3R)-3-(2-(2-chloro-5-fluoro-3,4-dihydroxyphenyl)-2-(4-(1-((3-fluoro-5-hydroxyphenyl)carbamoyl)piperidin-4-yl)-2,3-dioxopiperazine-1-carboxamido)acetamido)-7-fluoro-2-hydroxy-3,4-dihydro-2H-benzo[e][1,2]oxaborinine-8-carboxylic acid]	> 5.00	2 to 4 (≈ 2.44 to 4.88 µM)	< 1	< 1	2 to 4 (≈ 2.44 to 4.88 µM)	< 1	–
O=C(O)c1c(F)ccc2c1OB(O)[C@@H](NC(=O)C(NC(=O)N1CCN(C3CCN(C(=O)Nc4ccc(F)c(O)c4F)CC3)C(=O)C1=O)c1cc(F)c(O)c(O)c1Cl)C2 (stereo partly drawn) [Example 486, (3R)-3-(2-(2-chloro-5-fluoro-3,4-dihydroxyphenyl)-2-(4-(1-((2,4-difluoro-3-hydroxyphenyl)carbamoyl)piperidin-4-yl)-2,3-dioxopiperazine-1-carboxamido)acetamido)-7-fluoro-2-hydroxy-3,4-dihydro-2H-benzo[e][1,2]oxaborinine-8-carboxylic acid]	> 5.00	2 to 4 (≈ 2.39 to 4.78 µM)	< 1	< 1	2 to 4 (≈ 2.39 to 4.78 µM)	< 1	–
O=C(O)c1c(F)ccc2c1OB(O)[C@@H](NC(=O)[C@H](NC(=O)N1CCN(C3CCN(C(=O)Nc4ccc(O)cc4)CC3)C(=O)C1=O)c1cc(F)c(O)c(O)c1Cl)C2 (single isomer, unassigned) [Example 426]	> 5.00	< 1	< 1	< 1	< 1	2 to 4 (≈ 2.5 to 4.99 µM)	–
O=C(O)c1cccc2c1OB(O)[C@@H](NC(=O)[C@H](NC(=O)N1CCN(S(=O)(=O)c3ccc(O)c(O)c3Cl)C1=O)c1ccc(P(=O)(O)O)cc1)C2 [Example 509, (R)-3-((R)-2-(3-((2-chloro-3,4-dihydroxyphenyl)sulfonyl)-2-oxoimidazolidine-1-carboxamido)-2-(4-phosphonophenyl)acetamido)-2-hydroxy-3,4-dihydro-2H-benzo[e][1,2]oxaborinine-8-carboxylic acid]	> 5.00	< 1	< 1	< 1	< 1	< 1	–
O=C(O)c1c(F)ccc2c1OB(O)[C@@H](NC(=O)C(NC(=O)N1CCN(S(=O)(=O)c3ccc(O)c(O)c3Cl)C1=O)c1ccc(P(=O)(O)O)cc1)C2 (stereo partly drawn) [Example 505, (3R)-3-(2-(3-((2-chloro-3,4-dihydroxyphenyl)sulfonyl)-2-oxoimidazolidine-1-carboxamido)-2-(4-phosphonophenyl)acetamido)-7-fluoro-2-hydroxy-3,4-dihydro-2H-benzo[e][1,2]oxaborinine-8-carboxylic acid]	> 5.00	< 1	< 1	< 1	< 1	< 1	–
O=C(O)c1c(F)ccc2c1OB(O)[C@@H](NC(=O)[C@H](NC(=O)N1CCN(C3CCN(C(=O)c4cc(F)c(O)c(O)c4Cl)CC3)C1=O)c1ccc(P(=O)(O)O)cc1)C2 (single isomer, unassigned) [Example 495]	> 5.00	< 1	< 1	< 1	< 1	32 to 64 (≈ 38.9 to 77.9 µM)	–
O=C(O)c1c(F)ccc2c1OB(O)[C@@H](NC(=O)C(NC(=O)N1CCN(C3CCN(C(=O)Nc4ccc(F)c(O)c4F)CC3)C1=O)c1cc(F)c(O)c(O)c1Cl)C2 (stereo partly drawn) [Example 452, (3R)-3-(2-(2-chloro-5-fluoro-3,4-dihydroxyphenyl)-2-(3-(1-((2,4-difluoro-3-hydroxyphenyl)carbamoyl)piperidin-4-yl)-2-oxoimidazolidine-1-carboxamido)acetamido)-7-fluoro-2-hydroxy-3,4-dihydro-2H-benzo[e][1,2]oxaborinine-8-carboxylic acid]	> 5.00	< 1	< 1	< 1	–	2 to 4 (≈ 2.47 to 4.95 µM)	–
O=C(O)c1cccc2c1OB(O)[C@@H](NC(=O)[C@H](NC(=O)N1CCN(Cc3cc(F)c(O)c(O)c3Cl)C(=O)C1=O)c1ccc(P(=O)(O)O)cc1)C2 [Example 504, (R)-3-((R)-2-(4-(2-chloro-5-fluoro-3,4-dihydroxybenzyl)-2,3-dioxopiperazine-1-carboxamido)-2-(4-phosphonophenyl)acetamido)-2-hydroxy-3,4-dihydro-2H-benzo[e][1,2]oxaborinine-8-carboxylic acid]	–	< 1	–	< 1	< 1	< 1	< 1
O=C(O)c1c(F)ccc2c1OB(O)[C@@H](NC(=O)[C@@H](NC(=O)N1CCN(C3CCN(C(=O)c4ccc(O)cc4)CC3)C1=O)c1cc(F)c(O)c(O)c1Cl)C2 (single isomer, unassigned) [Example 462]	4.30 to 5.00	–	2 to 4 (≈ 2.64 to 5.28 µM)	8 to 16 (≈ 10.6 to 21.1 µM)	> 128	32 to 64 (≈ 42.2 to 84.4 µM)	–
